Measurements taken from patent US20210382051A1, “METHODS AND COMPOUND FOR THE IDENTIFICATION AND TREATMENT OF TUBERCULOSIS” (priority 2020, published 2021).

Tests used:
protease (PR) enzyme = protease (PR) enzyme (Human immunodeficiency virus type 1 group M subtype B, UniProt P04585); experiment: Effect on protease (PR) enzyme; format: biochemical, HIV
Description: (§1) Referring to FIGS. 2A and 2B, an anti-pathogenic agent and/or the anti-pathogenic compound may be identified as 90I (or 90i). The anti-pathogenic compound may be derived from the herbal extract identified as H2K1001. […] The essence of combination drug therapy, HAART regiments, may be its effectiveness against all HIV-1 strains that is potent enough to bring the viral load down to an undetectable level. This may be achieved by combining an RT and a PR combination synergy to affect multiple modes of action.

reverse transcriptase = reverse transcriptase (Human immunodeficiency virus type 1 group M subtype B, UniProt P04585); experiment: Effect on reverse transcriptase; format: biochemical, HIV
Description: as §1

[1] = system: gamma interferon production in monocyte and/or macrophage primary cell; experiment: Production of gamma interferon by cells receiving 90I (FIG. 3); format: cell-based; conditions: compared with positive control PMA-lonomycin combination; ten days assay, single time point drug addition
Description: FIG. 3 illustrates a graph showing production of gamma interferon by cells receiving 90I compared to other drugs, according to an exemplary embodiment of the present general inventive concept.
Referring to FIG. 3, this assay may underscore 90I's absorptions in a monocyte and/or a macrophage primary cell, such that the anti-pathogenic compound may have stability and longer pharmacokinetic half-life in ten days assay with single time point drug addition.
Moreover, activated CD8+ cells are reported to produce high levels of gamma interferon, which may be involved in the anti-TB immune responses, contributing to both control of bacterial spread and concomitant lymphoid follicular lyses. […] This finding may have a far-reaching implication and relevant in that H2K1001 and/or 90I has the potential in the restoration of immune competence, a strong immune modulator. 90I may be as strong as a vaccine because it may modulate the immune cell signal switch from Th2 to Th1 (i.e. a subset of T lymphocytes that express CD4 and are known as T-helper cells, they produce cytokines, specifically Th1-type cytokines). T-helper subset population Th1 and Th2 subset have been identified in animals and humans based on cytokines secreted. […]

HIV strains = experiment: Activity against HIV strains; format: cell-based; conditions: all HIV strains
Description: as §1

## O=C(OCCOCCOC(=O)c1ccccc1)c1ccccc1 [90I, diethylene glycol dibenzoate]
Protease (PR) enzyme
  effectiveness against protease (PR) enzyme: potently effective
Reverse transcriptase
  effectiveness against reverse transcriptase: potently effective
[1]
  amount of gamma interferon produced: equivalent to that of the positive control
HIV strains
  potency against HIV strains: highly potent against all HIV strains
